Laboratory results published in ChEMBL document CHEMBL6109094, “Anti-inflammatory agents design via the fragment hybrid strategy in the discovery of compound c1 for treating ALI and UC” (Eur J Med Chem, 2025).
Activity calls are given as the source filed them. No cut-off for these calls is given here.

Tests used:
RAW264.7 [1] = test: Anti-inflammatory activity in mouse RAW264.7 cells assessed as inhibition of LPS-induced IL-6 level at 10 uM preincubated for 30 mins followed by LPS addition measured after 24 hrs by ELISA relative to control; format: functional; settings: time 24.5 hrs
RAW264.7 [2] = test: cells; settings: Mus musculus
Description: Anti-inflammatory activity in mouse RAW264.7 cells assessed as inhibition of LPS-induced IL-6 level preincubated for 30 mins followed by LPS addition measured after 24 hrs by ELISA

[3] = molecular target: T1, Tyrosine-protein kinase JAK3 (Homo sapiens, UniProt P52333); test: Inhibition of JAK3 (unknown origin)
T1 sequence (P52333 whole entry): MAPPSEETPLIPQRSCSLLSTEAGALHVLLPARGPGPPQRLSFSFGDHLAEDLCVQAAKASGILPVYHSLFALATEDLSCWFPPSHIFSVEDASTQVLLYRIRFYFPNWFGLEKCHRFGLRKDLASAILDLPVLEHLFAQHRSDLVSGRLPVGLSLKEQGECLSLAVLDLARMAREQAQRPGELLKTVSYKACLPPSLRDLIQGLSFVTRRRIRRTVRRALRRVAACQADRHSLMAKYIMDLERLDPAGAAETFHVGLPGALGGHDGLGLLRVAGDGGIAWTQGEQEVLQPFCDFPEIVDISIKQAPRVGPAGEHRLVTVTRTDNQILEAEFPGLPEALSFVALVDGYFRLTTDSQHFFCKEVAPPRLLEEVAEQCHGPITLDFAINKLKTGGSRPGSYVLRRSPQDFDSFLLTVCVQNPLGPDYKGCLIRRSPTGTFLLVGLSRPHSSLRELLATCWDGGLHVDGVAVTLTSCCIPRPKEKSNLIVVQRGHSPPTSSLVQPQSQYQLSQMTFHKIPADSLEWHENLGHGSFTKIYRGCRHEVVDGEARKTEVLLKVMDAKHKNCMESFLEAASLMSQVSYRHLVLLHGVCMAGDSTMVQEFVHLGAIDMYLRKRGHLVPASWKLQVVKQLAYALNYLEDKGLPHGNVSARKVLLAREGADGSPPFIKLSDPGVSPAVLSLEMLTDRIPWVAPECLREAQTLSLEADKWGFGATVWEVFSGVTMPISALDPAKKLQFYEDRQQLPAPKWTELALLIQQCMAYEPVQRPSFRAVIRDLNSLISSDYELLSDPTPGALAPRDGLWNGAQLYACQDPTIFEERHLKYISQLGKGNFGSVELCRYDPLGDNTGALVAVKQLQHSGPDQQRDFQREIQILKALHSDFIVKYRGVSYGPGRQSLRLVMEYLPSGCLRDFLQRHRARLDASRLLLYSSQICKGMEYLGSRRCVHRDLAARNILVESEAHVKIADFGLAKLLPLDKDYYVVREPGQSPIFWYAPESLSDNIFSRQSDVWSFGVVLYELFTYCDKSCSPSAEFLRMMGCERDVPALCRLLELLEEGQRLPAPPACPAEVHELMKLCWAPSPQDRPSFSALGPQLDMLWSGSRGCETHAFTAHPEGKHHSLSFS

Row | SMILES | inhibition at 10 µM (RAW264.7 [1]) | further results
1 | COc1cc2ncnc(O[C@H]3CC[C@@H](NCCN4CCNCC4)CC3)c2cc1O | 46.5% | 
2 | COc1cc2ncnc(O[C@H]3CC[C@@H](NCCN4CCN(C(=O)OC(C)(C)C)CC4)CC3)c2cc1OC | 10.8% | 
3 | COc1cc2c(O[C@H]3CC[C@@H](N)CC3)ncnc2cc1OCc1ccccc1Br | 33.2% | 
4 | COc1cc2ncnc(O[C@H]3CC[C@@H](NC(=O)CCN4CCNCC4)CC3)c2cc1O | 9.85% | 
5 | COc1cc2c(O[C@H]3CC[C@@H](N)CC3)ncnc2cc1OCc1ccc([N+](=O)[O-])cc1 | 86.6% | IC50 (RAW264.7 [2]): 650 nM
6 | Clc1ccc2c(O[C@H]3CC[C@@H](NCCN4CCNCC4)CC3)ncnc2c1 | 58.9% | 
7 | COc1cc2ncnc(O[C@H]3CC[C@@H](NCCN4CCNCC4)CC3)c2cc1OCc1ccccc1 | 62.7% | 
8 | COc1cc2c(O[C@H]3CC[C@@H](NCCN4CCN(C(=O)OC(C)(C)C)CC4)CC3)ncnc2cc1OCc1ccccc1 |  | inhibition (RAW264.7 [1]): inactive
9 | COc1cc2ncnc(O[C@H]3CC[C@@H](NC(=O)CCN4CCN(C(=O)OC(C)(C)C)CC4)CC3)c2cc1O | 17.5% | 
10 | COc1cc2ncnc(O[C@H]3CC[C@@H](NCCN4CCN(C(=O)OC(C)(C)C)CC4)CC3)c2cc1O | 59.4% | 
11 | COc1cc2c(O[C@H]3CC[C@@H](NCCN4CCNCC4)CC3)ncnc2cc1OCc1ccccc1 | 74.2% | IC50 (RAW264.7 [2]): 3550 nM
12 | COc1cc2c(O[C@H]3CC[C@@H](N)CC3)ncnc2cc1OCc1ccc(Br)cc1 |  | inhibition (RAW264.7 [1]): inactive
13 | COc1cc2c(O[C@H]3CC[C@@H](NCCN4CCN(C(=O)OC(C)(C)C)CC4)CC3)ncnc2cc1O | 53.6% | 
14 | CC(C)(C)OC(=O)N1CCN(CCN[C@H]2CC[C@@H](Oc3ncnc4cc(Cl)ccc34)CC2)CC1 | 68.7% | 
15 | COc1cc2c(O[C@H]3CC[C@@H](N)CC3)ncnc2cc1OCc1cccc([N+](=O)[O-])c1 | 75.2% | 
16 | COc1cc2c(O[C@H]3CC[C@@H](N)CC3)ncnc2cc1OCc1ccccc1[N+](=O)[O-] | 30.6% | 
17 | COc1cc2c(O[C@H]3CC[C@@H](N)CC3)ncnc2cc1OCc1ccc(C)cc1 | 87.2% | IC50 (RAW264.7 [2]): 1590 nM
18 | COc1cc2ncnc(O[C@H]3CC[C@@H](NCCN4CCN(C(=O)OC(C)(C)C)CC4)CC3)c2cc1OCc1ccccc1 | 58.1% | 
19 | COc1cc2ncnc(O[C@H]3CC[C@@H](NCC4CCCN(C(=O)OC(C)(C)C)C4)CC3)c2cc1O (some centres not stated) | 68.7% | 
20 | COc1cc2ncnc(O[C@H]3CC[C@@H](NCCN4CCNCC4)CC3)c2cc1OC |  | inhibition (RAW264.7 [1]): inactive
21 | COc1cc2ncnc(O[C@H]3CC[C@@H](NCC4CCCNC4)CC3)c2cc1O (some centres not stated) |  | inhibition (RAW264.7 [1]): inactive
22 | COc1cc2ncnc(O[C@H]3CC[C@@H](NC(=O)CN4CCN(C(=O)OC(C)(C)C)CC4)CC3)c2cc1O | 11.8% | 
23 | COc1cc2ncnc(O[C@H]3CC[C@@H](NCCN4CCN(C(C)=O)CC4)CC3)c2cc1O | 66.1% | 
24 | COc1cc2c(O[C@H]3CC[C@@H](N)CC3)ncnc2cc1OCc1cccc(C)c1 | 89.5% | IC50 (RAW264.7 [2]): 600 nM
25 | COc1cc2ncnc(Nc3cc(Br)c(O)c(Br)c3)c2cc1OC |  | IC50 [3]: 2500 nM
26 | COc1cc2ncnc(O[C@H]3CC[C@@H](NCCCN4CCN(C)CC4)CC3)c2cc1O | 4.51% | 
27 | COc1cc2c(O[C@H]3CC[C@@H](NCCN4CCNCC4)CC3)ncnc2cc1O | 58.4% | 
28 | COc1cc2ncnc(O[C@H]3CC[C@@H](NC(=O)CN4CCNCC4)CC3)c2cc1O | 37.1% | 
